The results in this text go back to ChEMBL document CHEMBL3991601, “The target landscape of clinical kinase drugs” (Science, 2017).

The target in assay [1] is Chromodomain-helicase-DNA-binding protein 4 (Homo sapiens, UniProt Q14839).
Another assay addresses T1, Ephrin type-B receptor 3 (Homo sapiens, UniProt P54753).
T1 sequence (P54753 whole entry): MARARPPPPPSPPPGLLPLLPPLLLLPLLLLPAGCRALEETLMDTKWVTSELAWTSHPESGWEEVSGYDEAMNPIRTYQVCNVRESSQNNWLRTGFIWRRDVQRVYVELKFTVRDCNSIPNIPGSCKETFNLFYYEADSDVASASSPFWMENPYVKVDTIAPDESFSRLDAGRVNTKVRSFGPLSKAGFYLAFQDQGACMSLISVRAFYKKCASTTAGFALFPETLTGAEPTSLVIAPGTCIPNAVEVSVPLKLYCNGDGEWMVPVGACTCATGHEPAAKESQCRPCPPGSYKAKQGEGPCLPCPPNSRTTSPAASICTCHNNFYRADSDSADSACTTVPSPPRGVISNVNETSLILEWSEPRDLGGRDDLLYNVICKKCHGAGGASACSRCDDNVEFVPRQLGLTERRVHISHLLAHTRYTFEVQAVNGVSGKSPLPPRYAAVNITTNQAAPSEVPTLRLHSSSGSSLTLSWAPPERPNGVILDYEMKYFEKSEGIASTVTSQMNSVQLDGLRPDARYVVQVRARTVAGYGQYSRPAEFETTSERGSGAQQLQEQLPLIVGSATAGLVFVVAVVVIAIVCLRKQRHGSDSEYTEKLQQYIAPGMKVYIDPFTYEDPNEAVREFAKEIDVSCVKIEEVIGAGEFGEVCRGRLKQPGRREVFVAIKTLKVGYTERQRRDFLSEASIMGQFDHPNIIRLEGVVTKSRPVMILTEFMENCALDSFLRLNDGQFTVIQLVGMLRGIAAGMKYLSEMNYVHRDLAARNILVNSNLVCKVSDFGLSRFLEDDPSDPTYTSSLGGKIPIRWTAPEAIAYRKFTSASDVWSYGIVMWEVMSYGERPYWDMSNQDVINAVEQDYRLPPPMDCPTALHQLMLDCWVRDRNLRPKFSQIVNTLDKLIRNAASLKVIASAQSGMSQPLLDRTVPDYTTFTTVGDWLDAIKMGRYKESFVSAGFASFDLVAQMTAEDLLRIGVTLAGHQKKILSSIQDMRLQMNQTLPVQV

The target in assay [2] is Serine/threonine-protein kinase/endoribonuclease IRE1 (Homo sapiens, UniProt O75460).
Serine/threonine-protein kinase/endoribonuclease IRE1, sequence (O75460 whole entry): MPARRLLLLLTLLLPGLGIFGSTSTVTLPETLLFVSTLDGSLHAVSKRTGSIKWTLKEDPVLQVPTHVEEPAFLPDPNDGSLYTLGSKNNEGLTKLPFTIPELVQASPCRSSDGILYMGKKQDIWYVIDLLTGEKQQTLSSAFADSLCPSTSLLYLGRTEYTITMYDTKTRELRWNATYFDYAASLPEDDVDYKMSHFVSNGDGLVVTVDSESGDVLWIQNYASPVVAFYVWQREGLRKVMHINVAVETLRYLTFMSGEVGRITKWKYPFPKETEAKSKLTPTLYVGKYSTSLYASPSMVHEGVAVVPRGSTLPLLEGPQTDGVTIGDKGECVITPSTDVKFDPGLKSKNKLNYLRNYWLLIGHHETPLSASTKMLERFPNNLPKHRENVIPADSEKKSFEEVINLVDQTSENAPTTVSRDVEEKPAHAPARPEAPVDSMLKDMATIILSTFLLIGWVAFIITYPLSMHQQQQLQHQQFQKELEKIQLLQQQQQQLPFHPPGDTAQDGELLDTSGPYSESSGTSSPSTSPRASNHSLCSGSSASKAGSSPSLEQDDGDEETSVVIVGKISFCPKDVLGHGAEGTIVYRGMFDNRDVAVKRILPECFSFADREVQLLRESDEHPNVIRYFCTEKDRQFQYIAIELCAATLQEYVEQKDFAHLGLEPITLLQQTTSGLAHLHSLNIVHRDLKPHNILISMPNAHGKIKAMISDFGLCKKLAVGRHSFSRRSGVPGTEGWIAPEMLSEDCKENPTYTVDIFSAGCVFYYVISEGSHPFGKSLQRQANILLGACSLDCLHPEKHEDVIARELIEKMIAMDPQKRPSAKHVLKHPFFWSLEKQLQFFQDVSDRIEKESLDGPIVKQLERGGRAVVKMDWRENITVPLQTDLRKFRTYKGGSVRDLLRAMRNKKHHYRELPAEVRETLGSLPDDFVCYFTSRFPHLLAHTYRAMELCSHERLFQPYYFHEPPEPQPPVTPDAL
The target of assay [3] is T2, Serine/threonine-protein kinase LATS1 (Homo sapiens, UniProt O95835).
T2 sequence (O95835 whole entry): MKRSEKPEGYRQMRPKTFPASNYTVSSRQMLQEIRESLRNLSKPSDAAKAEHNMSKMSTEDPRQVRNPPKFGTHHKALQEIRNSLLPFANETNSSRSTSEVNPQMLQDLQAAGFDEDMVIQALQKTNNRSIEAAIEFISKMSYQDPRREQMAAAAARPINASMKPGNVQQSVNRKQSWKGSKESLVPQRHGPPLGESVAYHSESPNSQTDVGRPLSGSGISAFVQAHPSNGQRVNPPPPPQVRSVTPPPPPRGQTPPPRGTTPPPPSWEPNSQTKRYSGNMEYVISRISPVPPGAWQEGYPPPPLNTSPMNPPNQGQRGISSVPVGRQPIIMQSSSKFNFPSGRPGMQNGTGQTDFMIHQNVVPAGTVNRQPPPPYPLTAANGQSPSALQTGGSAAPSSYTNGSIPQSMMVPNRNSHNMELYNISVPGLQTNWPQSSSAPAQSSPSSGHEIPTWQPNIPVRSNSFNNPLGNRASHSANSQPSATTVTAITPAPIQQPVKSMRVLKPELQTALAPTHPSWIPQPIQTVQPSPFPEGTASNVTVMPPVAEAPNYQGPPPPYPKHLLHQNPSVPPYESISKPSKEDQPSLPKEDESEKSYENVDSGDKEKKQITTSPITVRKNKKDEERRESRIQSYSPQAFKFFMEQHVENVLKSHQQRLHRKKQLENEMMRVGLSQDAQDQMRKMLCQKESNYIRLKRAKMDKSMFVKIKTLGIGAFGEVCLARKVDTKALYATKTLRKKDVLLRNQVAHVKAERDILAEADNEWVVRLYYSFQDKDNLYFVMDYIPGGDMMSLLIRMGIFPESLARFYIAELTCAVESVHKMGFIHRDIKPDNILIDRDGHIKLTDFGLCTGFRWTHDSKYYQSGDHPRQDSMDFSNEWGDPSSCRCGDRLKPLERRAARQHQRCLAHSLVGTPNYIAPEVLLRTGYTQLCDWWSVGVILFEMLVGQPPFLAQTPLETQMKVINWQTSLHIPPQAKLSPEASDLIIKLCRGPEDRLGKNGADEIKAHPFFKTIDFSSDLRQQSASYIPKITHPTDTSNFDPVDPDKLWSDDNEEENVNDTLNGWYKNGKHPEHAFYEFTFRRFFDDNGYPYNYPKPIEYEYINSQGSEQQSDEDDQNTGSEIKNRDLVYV

Assay [4] has as its target Mitogen-activated protein kinase kinase kinase kinase 4 (Homo sapiens, UniProt O95819).
The target in assay [5] is Macrophage-stimulating protein receptor (Homo sapiens, UniProt Q04912).
Macrophage-stimulating protein receptor, sequence (Q04912 25-304 limits assumed): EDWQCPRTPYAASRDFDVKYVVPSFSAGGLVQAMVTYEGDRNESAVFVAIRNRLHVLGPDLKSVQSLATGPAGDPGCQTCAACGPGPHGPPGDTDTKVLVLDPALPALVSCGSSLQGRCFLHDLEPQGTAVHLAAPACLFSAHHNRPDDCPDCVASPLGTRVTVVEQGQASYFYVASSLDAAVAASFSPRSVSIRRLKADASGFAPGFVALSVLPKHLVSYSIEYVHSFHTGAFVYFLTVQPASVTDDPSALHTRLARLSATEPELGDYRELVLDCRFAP
Macrophage-stimulating protein receptor, sequence (Q04912 310-1400 limits assumed): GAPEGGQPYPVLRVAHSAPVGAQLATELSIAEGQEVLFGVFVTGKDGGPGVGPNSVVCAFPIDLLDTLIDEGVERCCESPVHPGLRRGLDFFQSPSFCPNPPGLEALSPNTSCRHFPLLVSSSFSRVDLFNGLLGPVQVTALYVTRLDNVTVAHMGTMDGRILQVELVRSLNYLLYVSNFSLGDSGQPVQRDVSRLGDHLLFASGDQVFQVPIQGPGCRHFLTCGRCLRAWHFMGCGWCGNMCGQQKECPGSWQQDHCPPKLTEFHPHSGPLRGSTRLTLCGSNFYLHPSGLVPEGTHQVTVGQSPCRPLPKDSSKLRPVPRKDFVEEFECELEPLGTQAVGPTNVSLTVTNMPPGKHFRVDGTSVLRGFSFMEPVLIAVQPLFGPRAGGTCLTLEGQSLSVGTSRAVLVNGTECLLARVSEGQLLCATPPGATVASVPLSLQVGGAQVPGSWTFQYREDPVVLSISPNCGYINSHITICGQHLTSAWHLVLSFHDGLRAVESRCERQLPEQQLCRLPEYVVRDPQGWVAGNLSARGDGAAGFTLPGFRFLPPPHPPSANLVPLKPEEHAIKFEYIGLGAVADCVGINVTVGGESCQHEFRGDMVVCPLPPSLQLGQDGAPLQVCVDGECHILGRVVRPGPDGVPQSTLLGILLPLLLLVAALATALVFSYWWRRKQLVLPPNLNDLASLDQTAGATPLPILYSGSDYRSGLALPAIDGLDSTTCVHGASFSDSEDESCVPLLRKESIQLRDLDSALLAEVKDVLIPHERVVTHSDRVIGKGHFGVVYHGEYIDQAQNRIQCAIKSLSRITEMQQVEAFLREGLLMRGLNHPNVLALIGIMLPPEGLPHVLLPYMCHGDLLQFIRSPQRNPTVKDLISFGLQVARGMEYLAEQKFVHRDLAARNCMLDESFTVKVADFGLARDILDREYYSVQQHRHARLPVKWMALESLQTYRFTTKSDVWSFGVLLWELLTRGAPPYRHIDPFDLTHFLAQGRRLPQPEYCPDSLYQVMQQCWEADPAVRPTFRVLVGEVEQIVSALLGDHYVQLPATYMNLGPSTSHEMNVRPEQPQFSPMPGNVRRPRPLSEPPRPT
For assay [6], the target named is Serine/threonine-protein kinase PAK 2 (Homo sapiens, UniProt Q13177).
Serine/threonine-protein kinase PAK 2, sequence (Q13177 whole entry): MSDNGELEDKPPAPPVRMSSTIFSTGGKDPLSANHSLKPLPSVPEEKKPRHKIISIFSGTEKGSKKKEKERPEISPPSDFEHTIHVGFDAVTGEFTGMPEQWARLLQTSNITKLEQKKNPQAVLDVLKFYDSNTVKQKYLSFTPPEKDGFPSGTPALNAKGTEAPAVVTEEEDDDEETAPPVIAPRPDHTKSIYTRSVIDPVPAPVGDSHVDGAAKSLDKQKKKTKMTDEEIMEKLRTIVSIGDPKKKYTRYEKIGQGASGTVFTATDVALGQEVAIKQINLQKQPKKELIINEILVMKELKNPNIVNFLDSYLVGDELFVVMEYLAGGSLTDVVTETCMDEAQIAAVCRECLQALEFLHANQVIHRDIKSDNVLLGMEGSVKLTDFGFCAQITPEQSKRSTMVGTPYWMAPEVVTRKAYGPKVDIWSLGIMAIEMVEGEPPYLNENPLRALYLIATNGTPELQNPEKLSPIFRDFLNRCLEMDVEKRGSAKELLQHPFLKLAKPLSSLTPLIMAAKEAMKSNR
Assay [7] has as its target T3, Uncharacterized protein FLJ45252 (Homo sapiens, UniProt Q6ZSR9).
T3 sequence (Q6ZSR9 whole entry): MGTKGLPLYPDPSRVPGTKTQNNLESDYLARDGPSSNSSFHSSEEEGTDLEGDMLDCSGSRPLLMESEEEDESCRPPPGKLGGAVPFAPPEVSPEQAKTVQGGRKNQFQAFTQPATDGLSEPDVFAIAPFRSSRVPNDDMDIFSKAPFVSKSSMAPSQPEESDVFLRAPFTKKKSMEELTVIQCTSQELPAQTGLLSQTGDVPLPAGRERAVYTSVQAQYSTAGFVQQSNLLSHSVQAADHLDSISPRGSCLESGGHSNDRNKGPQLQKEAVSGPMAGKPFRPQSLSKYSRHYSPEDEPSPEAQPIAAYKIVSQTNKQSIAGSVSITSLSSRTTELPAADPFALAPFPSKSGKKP
As to conditions: read-out: Kd apparent; k-562, colo 205, sk-n-be(2) and mv-4-11.

The structures appear in SMILES notation. Activity calls are given as the source filed them. For most assays here, no stated cut-off is given here; in the data, actives have a measured Kd and inactives only a lower limit.

Chromodomain-helicase-DNA-binding protein 4, sequence (Q14839 whole entry): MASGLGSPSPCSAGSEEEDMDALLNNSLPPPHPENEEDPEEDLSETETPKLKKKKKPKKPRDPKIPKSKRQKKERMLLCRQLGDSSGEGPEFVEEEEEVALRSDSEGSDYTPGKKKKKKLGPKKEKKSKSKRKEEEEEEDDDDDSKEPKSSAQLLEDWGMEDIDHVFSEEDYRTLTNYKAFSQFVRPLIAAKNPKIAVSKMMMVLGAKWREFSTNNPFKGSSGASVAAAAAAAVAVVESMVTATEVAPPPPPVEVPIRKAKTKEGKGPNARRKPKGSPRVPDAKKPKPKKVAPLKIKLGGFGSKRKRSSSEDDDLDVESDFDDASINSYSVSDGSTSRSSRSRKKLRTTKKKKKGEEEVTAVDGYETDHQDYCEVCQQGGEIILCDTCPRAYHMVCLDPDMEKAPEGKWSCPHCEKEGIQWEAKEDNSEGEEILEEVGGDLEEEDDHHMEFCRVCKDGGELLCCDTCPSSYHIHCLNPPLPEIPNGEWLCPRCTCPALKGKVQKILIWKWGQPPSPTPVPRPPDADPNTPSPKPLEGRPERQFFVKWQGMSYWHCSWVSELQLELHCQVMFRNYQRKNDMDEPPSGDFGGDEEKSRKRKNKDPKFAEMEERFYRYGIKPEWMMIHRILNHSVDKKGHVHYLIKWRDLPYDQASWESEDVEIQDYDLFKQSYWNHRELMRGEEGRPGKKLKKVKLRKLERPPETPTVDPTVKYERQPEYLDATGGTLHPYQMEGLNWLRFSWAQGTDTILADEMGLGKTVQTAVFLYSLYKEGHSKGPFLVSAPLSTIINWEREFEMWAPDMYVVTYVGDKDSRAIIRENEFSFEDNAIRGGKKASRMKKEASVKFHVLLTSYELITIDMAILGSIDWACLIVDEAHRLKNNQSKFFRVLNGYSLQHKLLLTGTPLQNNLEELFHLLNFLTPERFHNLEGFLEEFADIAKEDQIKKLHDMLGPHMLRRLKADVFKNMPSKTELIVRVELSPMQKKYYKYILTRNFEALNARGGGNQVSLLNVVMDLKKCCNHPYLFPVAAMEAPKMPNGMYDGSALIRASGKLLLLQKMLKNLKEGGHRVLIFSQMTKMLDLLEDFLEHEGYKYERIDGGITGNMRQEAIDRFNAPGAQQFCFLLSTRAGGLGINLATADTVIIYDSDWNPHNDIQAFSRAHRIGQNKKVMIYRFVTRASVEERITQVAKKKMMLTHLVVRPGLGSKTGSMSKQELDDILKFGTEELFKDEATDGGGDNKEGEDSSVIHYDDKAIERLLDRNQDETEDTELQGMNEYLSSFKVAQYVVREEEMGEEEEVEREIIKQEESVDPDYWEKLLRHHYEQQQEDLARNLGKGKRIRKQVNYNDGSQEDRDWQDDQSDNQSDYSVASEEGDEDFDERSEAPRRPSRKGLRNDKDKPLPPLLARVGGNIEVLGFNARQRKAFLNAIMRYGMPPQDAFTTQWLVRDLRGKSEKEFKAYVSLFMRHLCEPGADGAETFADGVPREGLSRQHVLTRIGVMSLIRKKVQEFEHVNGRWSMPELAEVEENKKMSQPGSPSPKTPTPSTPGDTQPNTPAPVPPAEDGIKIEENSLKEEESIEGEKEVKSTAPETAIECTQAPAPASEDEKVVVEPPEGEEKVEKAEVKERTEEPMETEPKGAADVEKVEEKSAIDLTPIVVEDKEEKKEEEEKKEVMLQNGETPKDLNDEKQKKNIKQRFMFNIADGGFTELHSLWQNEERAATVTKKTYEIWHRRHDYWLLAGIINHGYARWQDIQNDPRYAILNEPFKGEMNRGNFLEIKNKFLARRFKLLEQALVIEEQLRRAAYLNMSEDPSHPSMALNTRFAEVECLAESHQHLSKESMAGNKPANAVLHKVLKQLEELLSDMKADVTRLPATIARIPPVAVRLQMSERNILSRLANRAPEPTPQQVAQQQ

Take `O=C(c1ccc(F)c(F)c1Nc1ccc(I)cc1F)N1CC(O)([C@@H]2CCCCN2)C1` [COBIMETINIB]: the Kd (in assay [1]; at Ephrin type-B receptor 3; in assay [2]; in assay [3]; in assay [4]; in assay [5]) was > 30 µM (inactive) in each case. For the same molecule, the Kd in assay [6] and in assay [7] was > 30 µM (inactive) in each case.
Consider `Cc1ccc(S(=O)(=O)Nc2nc3ccccc3nc2Nc2ccc3nsnc3c2)cc1`, for which the Kd (in assay [1]; at Ephrin type-B receptor 3; in assay [2]; in assay [3]; in assay [4]; in assay [5]) was > 30 µM (inactive) in each case. Also, the Kd in assay [6] and in assay [7] was > 30 µM (inactive) in each case.
Take `CN(C)C(=O)c1cc2cnc(Nc3ccc(N4CCNCC4)cn3)nc2n1C1CCCC1` [RIBOCICLIB]: the Kd (in assay [1]; on Ephrin type-B receptor 3; in assay [2]; in assay [3]; in assay [4]; in assay [5]) was > 30 µM (inactive) throughout. Besides, the figures for the Kd in assay [6] and in assay [7] were > 30 µM (inactive) and 9.31 µM (active), respectively.
As to `O=C(Nc1ccc(-c2ccnc(Nc3ccc(N4CCOCC4)cc3)n2)cc1)C1CCCN1` (configuration not stated) [XL-019], the Kd is > 30 µM (inactive) in assay [1]; > 30 µM (inactive) on Ephrin type-B receptor 3; > 30 µM (inactive) in assay [2]; 3.79 µM (active) in assay [3]; > 30 µM (inactive) in assay [4]; > 30 µM (inactive) in assay [5]. Moreover, the Kd in assay [6] was > 30 µM (inactive); in assay [7], 0.007 µM (active).
Take `CNC(=O)CN1CCC(Oc2cc3c(Nc4cccc(Cl)c4F)ncnc3cc2OC)CC1` [SAPITINIB]: the Kd (in assay [1]; on Ephrin type-B receptor 3; in assay [2]; in assay [3]; in assay [4]; in assay [5]) was > 30 µM (inactive) throughout. Further, the Kd in assay [6] and in assay [7] was > 30 µM (inactive) in each case.
In the case of `Cc1cc([C@@H](C)Nc2ccccc2C(=O)O)c2nc(N3CCOCC3)cc(=O)n2c1` [AZD-6482], the Kd (in assay [1]; on Ephrin type-B receptor 3; in assay [2]; in assay [3]; in assay [4]; in assay [5]) was > 30 µM (inactive) each time. Further, the Kd in assay [6] and in assay [7] was > 30 µM (inactive) throughout.
Turning to `CCN1CCN(Cc2ccc(-c3cc4c(N[C@H](C)c5ccccc5)ncnc4[nH]3)cc2)CC1` [AEE-788], the Kd in assay [1] was > 30 µM (inactive); on Ephrin type-B receptor 3 it was > 30 µM (inactive); in assay [2], > 30 µM (inactive); in assay [3], > 30 µM (inactive); in assay [4] it was 7.98 µM (active); in assay [5], > 30 µM (inactive). For the same molecule, the Kd in assay [6] and in assay [7] was > 30 µM (inactive) throughout.
For the molecule `CN1N=C(N)c2cn([C@@H]3O[C@H](COP(=O)(O)O)[C@@H](O)[C@H]3O)c3ncnc1c23` [TRICIRIBINE PHOSPHATE], the Kd (in assay [1]; at Ephrin type-B receptor 3; in assay [2]; in assay [3]; in assay [4]; in assay [5]) was > 30 µM (inactive) throughout. The Kd in assay [6] and in assay [7] was > 30 µM (inactive) throughout.
For `CC(=O)Nc1cccc(-n2c(=O)n(C3CC3)c(=O)c3c(Nc4ccc(I)cc4F)n(C)c(=O)c(C)c32)c1` [TRAMETINIB], the Kd (in assay [1]; on Ephrin type-B receptor 3; in assay [2]; in assay [3]; in assay [4]; in assay [5]) was > 30 µM (inactive) in each case. The Kd in assay [6] and in assay [7] was > 30 µM (inactive) in each case.
